In this assay the target is Protein smoothened (Homo sapiens, UniProt Q99835). The assay can be described thus: Inhibition of Smo receptor (unknown origin) expressed in NIH3T3 cells assessed as inhibition of Smo agonist SAG-induced GRE activation after 30 hrs by luciferase reporter gene assay. The assay is classed as cell-based. A general note: In a reporter assay the amount or activity of a reporter protein is the signal.

Where only a bound is given, the exact number is not on record here.

Chain of Protein smoothened (Q99835 whole entry): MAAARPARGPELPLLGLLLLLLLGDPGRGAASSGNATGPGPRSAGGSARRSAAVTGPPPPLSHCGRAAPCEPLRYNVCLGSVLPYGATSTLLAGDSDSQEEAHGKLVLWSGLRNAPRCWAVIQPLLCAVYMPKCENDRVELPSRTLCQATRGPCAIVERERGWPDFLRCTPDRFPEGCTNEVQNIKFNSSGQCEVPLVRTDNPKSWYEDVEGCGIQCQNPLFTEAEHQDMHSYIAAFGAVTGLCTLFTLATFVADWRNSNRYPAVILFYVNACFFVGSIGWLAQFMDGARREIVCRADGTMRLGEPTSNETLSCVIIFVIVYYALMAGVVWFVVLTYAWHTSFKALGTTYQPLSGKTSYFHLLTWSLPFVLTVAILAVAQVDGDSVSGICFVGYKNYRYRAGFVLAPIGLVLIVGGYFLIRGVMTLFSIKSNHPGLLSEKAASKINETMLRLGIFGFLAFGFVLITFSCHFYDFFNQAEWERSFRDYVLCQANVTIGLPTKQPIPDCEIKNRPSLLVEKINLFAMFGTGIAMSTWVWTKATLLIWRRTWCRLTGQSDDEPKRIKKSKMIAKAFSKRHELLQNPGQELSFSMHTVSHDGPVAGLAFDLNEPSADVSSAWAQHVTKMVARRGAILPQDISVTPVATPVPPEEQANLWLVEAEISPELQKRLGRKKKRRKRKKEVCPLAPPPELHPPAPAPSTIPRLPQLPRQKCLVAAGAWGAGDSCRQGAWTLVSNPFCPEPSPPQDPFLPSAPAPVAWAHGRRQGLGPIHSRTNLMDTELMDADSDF

As to `Cc1cnc(-c2cc(N3CCn4cc(C(=O)O)nc4C3)ncc2Cl)c(C)c1`, the half-maximal inhibitory concentration (IC50) (usually the concentration that inhibits the measured activity by half) was greater than 10000 nM. The result for `CCNC(=O)c1cn2c(n1)CN(c1cc(-c3ncc(C)cc3C)c(Cl)cn1)CC2` reads 1300 nM; that for `Cc1cnc(-c2cc(N3CCn4cc(C(=O)N5CCC(O)C5)nc4C3)ncc2Cl)c(C)c1` (centres undefined), greater than 10000 nM. On to `COC[C@H]1CCCN1C(=O)c1cn2c(n1)CN(c1cc(-c3ncc(C)cc3C)c(Cl)cn1)CC2`, for which the half-maximal inhibitory concentration (IC50) amounted to 550 nM. With `Cc1cnc(-c2cc(N3CCn4cc(C(=O)OC(C)C)nc4C3)ncc2Cl)c(C)c1`, the 50% inhibitory concentration (IC50) turned out to be 380 nM. As for `Cc1cnc(-c2cc(N3CCn4cc(C(=O)Nc5cccnc5)nc4C3)ncc2Cl)c(C)c1`, the IC50 amounted to 200 nM. With `Cc1cnc(-c2cc(N3CCn4cc(C(=O)Nc5ccccc5F)nc4C3)ncc2Cl)c(C)c1`, the IC50 stood at 350 nM. The same measure for `Cc1cnc(-c2cc(N3CCn4cc(C(=O)Oc5ccccc5)nc4C3)ncc2Cl)c(C)c1`: 960 nM; for `Cc1cnc(-c2cc(N3CCn4cc(CN5CCOCC5)nc4C3)ncc2Cl)c(C)c1`: 910 nM. With `Cc1cnc(-c2cc(N3CCn4cc(C(=O)N5CC(O)C5)nc4C3)ncc2Cl)c(C)c1`, the concentration for half-maximal inhibition (IC50) was greater than 10000 nM. The same measure for `CNC(=O)c1cn2c(n1)CN(c1cc(-c3ncc(C)cc3C)c(Cl)cn1)CC2`: 2700 nM; for `Cc1cnc(-c2cc(N3CCn4cc(C(=O)Nc5ccc(F)cc5)nc4C3)ncc2Cl)c(C)c1`: 440 nM. The result for `Cc1cnc(-c2cc(N3CCn4cc(C(=O)N5CC(C)NC(C)C5)nc4C3)ncc2Cl)c(C)c1` (centres undefined) reads 1500 nM; that for `Cc1cnc(-c2cc(N3CCn4cc(C(=O)Nc5ccccn5)nc4C3)ncc2Cl)c(C)c1`, 270 nM; that for `CCC(=O)Nc1cn2c(n1)CN(c1cc(-c3ncc(C)cc3C)c(Cl)cn1)CC2`, 890 nM. The same measure for `Cc1cnc(-c2cc(N3CCn4cc(CO)nc4C3)ncc2Cl)c(C)c1`: 4100 nM; for `Cc1cnc(-c2cc(N3CCn4cc(C(=O)Nc5cccc(F)c5)nc4C3)ncc2Cl)c(C)c1`: 87 nM. Take `Cc1cnc(-c2cc(N3CCn4cc(C(=O)Nc5ccc(F)c(F)c5)nc4C3)ncc2Cl)c(C)c1`: the half-maximal inhibitory concentration (IC50) turned out to be 420 nM.

Turning to `Cc1cnc(-c2cc(N3CCn4cc(C(=O)N(C)CCO)nc4C3)ncc2Cl)c(C)c1`, the 50% inhibitory concentration (IC50) worked out at 4100 nM. Take `Cc1cnc(-c2cc(N3CCn4cc(C(=O)N5CCC(O)CC5)nc4C3)ncc2Cl)c(C)c1`: the half-maximal inhibitory concentration (IC50) stood at 1200 nM.

With `CCOC(=O)c1cn2c(n1)CN(c1cc(-c3ncc(C)cc3C)c(Cl)cn1)CC2`, the half-maximal inhibitory concentration (IC50) was 690 nM. The result for `COCC(=O)Nc1cn2c(n1)CN(c1cc(-c3ncc(C)cc3C)c(Cl)cn1)CC2` reads 650 nM; that for `Cc1cnc(-c2cc(N3CCn4cc(C(=O)N5CCOCC5)nc4C3)ncc2Cl)c(C)c1`, 790 nM; that for `Cc1cnc(-c2cc(N3CCn4cc(C(=O)NCC5CC5)nc4C3)ncc2Cl)c(C)c1`, 520 nM.

With `Cc1cnc(-c2cc(N3CCn4cc(NC(=O)C(F)(F)F)nc4C3)ncc2Cl)c(C)c1`, the concentration for half-maximal inhibition (IC50) came to 1800 nM. The result for `Cc1cnc(-c2cc(N3CCn4cc(C(=O)OC5CCCC5)nc4C3)ncc2Cl)c(C)c1` reads 740 nM; that for `Cc1cnc(-c2cc(N3CCn4cc(C(=O)N5CCCC5)nc4C3)ncc2Cl)c(C)c1`, 270 nM; that for `Cc1cnc(-c2cc(N3CCn4cc(C(=O)Nc5ccccc5)nc4C3)ncc2Cl)c(C)c1`, 300 nM. For `Cc1cnc(-c2cc(N3CCn4cc(C(=O)OCC5CC5)nc4C3)ncc2Cl)c(C)c1`, the IC50 is 270 nM.
